The values that follow come from PubChem BioAssay (NCI).

“And” between values parts separate entries of the source, which are not always exact repeats. Equal values may be shown once.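 Exposure lasted 48 hours, with cells grown in 96-well plates and compounds tested at five concentrations. GI50 marks 50% less growth. TGI: concentration producing complete growth inhibition.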

Holding throughout (experiment): NCI tumour cell line growth inhibition, 48 h
Assay [1] has as its system BT-549 breast.
For assay [2], the system named is DU-145 prostate.
Assay [3] has as its system HOP-18 NSCLC.
The test system of assay [4] is HS 578T breast.
Assay [5] relates to KM20L2 colon.
In assay [6] the test system is LXFL 529 NSCLC.
Assay [7] concerns M19-MEL melanoma.
The test system of assay [8] is MDA-MB-435.
Assay [9] concerns NCI/ADR-RES ovarian.
Assay [10] concerns MCF7 breast.

With `O=C(O)C(O)C(O)C1[O][Sb][O]C1CO` (stereo not drawn), the GI50 was > 100 µM in [1]; > 100 µM in assay [2]; > 100 µM in [3]; > 100 µM in assay [4]; > 100 µM in assay [5]; > 89.2 µM in assay [6]. In addition, the GI50 in [7] was 9.07 µM; in assay [8] it was > 100 µM; in [9], > 100 µM. Moreover, the TGI in assay [1], in assay [2], in assay [3], in assay [4], in assay [5] and in assay [6] was > 100 µM in each case. Further, the values for the TGI in assay [7], in assay [8] and in [9] were 31 µM, > 100 µM and > 100 µM, respectively.
On to `C=C1C(=O)C23C(CC(OC(C)=O)C1[C@@H]2OC(C)=O)C1(C)C(OC(C)=O)CCC(C)(C)C1C[C@@H]3OC(C)=O` (stereo partly drawn), for which the TGI was 2.63 µM in [6] and 3.16 µM in assay [7].
In the case of `Nc1nc(Cl)cc(NCCCCCCCCCCNc2cc(Cl)nc(N)n2)n1`, the TGI in [3], in assay [5], in [6] and in assay [7] was > 100 µM each time.
On to `O=C(O)C1C2CC3CC2CC31` (stereo not drawn), for which the TGI in assay [6] was > 100 µM.
Take `c1ccc(CN(Cc2ccccn2)Cn2cccn2)nc1`: the TGI in [5] and in assay [7] was > 100 µM throughout.
Turning to `O=C(NNc1ccc([N+](=O)[O-])cc1)C1OC(CO)C(O)C1O` (stereo not drawn), the TGI in assay [3], in assay [5], in assay [6] and in assay [7] was > 100 µM throughout.
For the molecule `C/C(=N\N=C(N)N)c1sc(-c2nc(C)c(/C(C)=N/N=C(N)N)s2)nc1C`, the TGI in [3], in [5], in assay [6] and in assay [7] was > 100 µM throughout.
In the case of `Cc1cc(Br)cc(C)c1NC(=O)C(=O)C(C(=O)c1ccc(Cl)c(Cl)c1)C1OC(=O)c2ccccc21` (stereo not drawn), the TGI in assay [5], in [6] and in [7] was > 100 µM throughout.
Turning to `O=C1CCCc2c(O)ccc(O)c21`, the TGI in assay [3], in assay [5], in assay [6] and in assay [7] was > 100 µM in each case.
In the case of `COc1ccc(-c2nc(N)nc(-c3cc(C)ccc3O)c2Cl)cc1`, the TGI in assay [3], in [5], in [6] and in assay [7] was > 100 µM each time.
Consider `OCC(O)C(OC1OC(CO)C(O)C(O)C1O)c1nn(-c2ccc(F)cc2)c2nc3cc(Cl)c(Cl)cc3cc12` (stereo not drawn), for which the TGI in assay [5], in [6] and in assay [7] was > 100 µM throughout.
For the molecule `Cc1ccc(NC(=O)CCC(=O)C(C#N)c2ccc(Cl)cc2)cc1C` (stereo not drawn), the TGI in assay [3], in [5], in assay [6] and in assay [7] was > 100 µM each time.
Turning to `Cc1ccc(C)c2sc3cc(=O)ccc-3nc12`, the TGI in assay [3] was > 100 µM; in assay [5], > 100 µM; in [6] it was > 100 µM; in [7], 31.1 µM.
In the case of `Cc1ccc(C)c(NC(=O)CCc2n[nH]c(=S)o2)c1`, the TGI in [3], in assay [5], in assay [6] and in assay [7] was > 100 µM each time.
In the case of `COc1ccc(/C=C/CO)cc1OC`, the TGI in assay [5], in assay [6] and in assay [7] was > 100 µM in each case.
For the molecule `CC(C)c1cc2c(O)c(c1)Cc1cc(C(C)C)cc(c1O)Cc1cc(C(C)C)cc(c1O)Cc1cc(C(C)C)cc(c1O)Cc1cc(C(C)C)cc(c1O)Cc1cc(C(C)C)cc(c1O)C2`, the TGI in [5], in [6] and in assay [7] was > 100 µM in each case.
In the case of `Cc1ccc(NC(=O)NC23CC4CC(CC(F)(C4)C2)C3)cc1`, the TGI in assay [5], in assay [6] and in assay [7] was > 100 µM in each case.
With `C[Si](C)(C)[C@@]1([Se]c2ccccc2)CC[C@@H]1C(=O)c1ccccc1`, the TGI in assay [5], in assay [6] and in assay [7] was > 100 µM each time.
Take `COc1ccccc1OCC(COC(=O)Nc1ccc(C)cc1)OC(=O)Nc1ccc(C)cc1` (stereo not drawn): the TGI in [3] is 40.3 µM; in assay [5] it was 50 µM; in [6], > 100 µM.
As for `C/C(=N\NC(=S)Nc1ccc([N+](=O)[O-])cc1S(=O)(=O)O)c1ccccn1`, the TGI in [3] is > 100 µM; in assay [5], 67.2 µM; in assay [6], > 100 µM; in [7] it was > 100 µM.
Regarding `O=[N+]([O-])C(=C(c1ccccc1)c1ccccc1)[N+](=O)[O-]`, the TGI is 32.1 µM in assay [5] and 29.2 µM in assay [6].
Turning to `O=C(O)c1oc2ccc([N+](=O)[O-])c3c2c1CCC3`, the TGI in assay [3], in [5], in assay [6] and in assay [7] was > 100 µM throughout.
Take `N#CC(/C(=N\NC(N)=S)C(=O)NC1C2CC3CC(C2)CC1C3)c1ccc(Cl)cc1` (stereo not drawn): the TGI in assay [3], in assay [5], in assay [6] and in assay [7] was > 100 µM each time.
Regarding `S=C1OC2C3C4CC5C3C(O1)C1C5C4C21` (stereo not drawn), the TGI in assay [3], in [5], in [6] and in assay [7] was > 100 µM each time.
Take `COc1cc(C(N)=O)c(OC)c(OC)c1OC`: the TGI in assay [5], in [6] and in assay [7] was > 100 µM in each case.
On to `Cc1nc(Nc2ccc([N+](=O)[O-])cc2)sc1C(=O)/C=C/c1ccc(N(C)C)cc1`, for which the TGI in [3], in assay [5] and in assay [7] was > 100 µM in each case.
`COC(=N)/C(=C1\OC(N)=C(c2ccc(Cl)cc2)C1=O)c1ccc(Cl)cc1`: the TGI in assay [3], in assay [5], in assay [6] and in assay [7] was > 100 µM each time.
As to `CC(=O)Nc1[nH]c(=O)[nH]c(=O)c1N(C(C)=O)C(C)=O`, the TGI in [5], in [6] and in [7] was > 100 µM each time.
With `C(=C1/CCCCC([n+]2ccccc2)=N1)/c1ccccc1`, the TGI in assay [3], in assay [5], in [6] and in assay [7] was > 100 µM in each case.
`CC1=NN(C(=O)Cc2ccccc2)C(=O)/C1=C\c1cccc(O)c1`: the TGI in assay [3] and in assay [7] was > 100 µM in each case.
On to `CCCCCCCCSC(SCCCCCCCC)=C1C(=O)N(c2ccccc2)N=C1C`, for which the TGI in [3], in assay [5], in assay [6] and in [7] was > 100 µM throughout.
For `NC(=O)Cn1c(=O)[nH]c(=O)c2[nH]cnc21`, the TGI in assay [3], in [5], in [6] and in [7] was > 100 µM each time.
As to `Clc1cccc(C2SCc3nc4ccccc4n32)c1Cl` (stereo not drawn), the TGI in assay [3] was found to be 33.1 µM; in assay [5], 34.7 µM; in assay [6], 30.3 µM; in [7] it was 29.6 µM.
The corresponding values for `O=C1C=Cc2noc3cccc1c23` are 33.6 µM, 34 µM, 4.9 µM and 11.2 µM.
For `CC(C)S(=O)(=O)n1c(N)nc2ccc(/C(=N/O)c3ccccc3)cc21`, the TGI in assay [5] is 31.8 µM; in assay [6], > 100 µM; in [7], > 100 µM.
In the case of `OCC1CC2CC1C1(C2)OCCO1` (stereo not drawn), the TGI in assay [3], in [5], in assay [6] and in [7] was > 100 µM throughout.
For the molecule `O=C(O)CNS(=O)(=O)c1ccc(NC(=O)c2cccc([N+](=O)[O-])c2)cc1`, the TGI in [3], in [5], in assay [6] and in assay [7] was > 100 µM in each case.
As for `COc1ccc(C2CC(C)=Nc3c([nH]c(=S)[nH]c3=O)N2)cc1` (stereo not drawn), the TGI in [3] was > 100 µM; in assay [5], 31.7 µM; in assay [6], 30.5 µM; in assay [7] it was 31 µM.
`C1CCN2CC34CC(CC5CCCN(C6CCCC3N6)C54)C2C1` (stereo not drawn): the TGI in assay [1], in [2], in assay [4], in [10], in assay [8] and in assay [9] was > 100 µM in each case.
On to `CCCC/C(C)=N/NC(N)=S`, for which the TGI in [3], in [5], in assay [6] and in assay [7] was > 100 µM in each case.
Turning to `N#CCc1nc2c(s1)C(=O)c1ccccc1C2=O`, the TGI in assay [3] is 28.3 µM; in assay [5] it was > 100 µM; in assay [6], 28.2 µM; in assay [7] it was 11.4 µM.
The corresponding values for `C[P+](C)(CC(F)(F)F)c1ccccc1` are > 100 µM, > 100 µM, > 100 µM and > 100 µM.
For the molecule `C=C(C)[C@@H]1CC[C@]2(C#N)CC[C@]3(C)[C@H](CC[C@@H]4[C@@]5(C)CCCNC(C)(C)[C@@H]5CC[C@]43C)[C@@H]12`, the GI50 in [1] was 1.75 µM; in assay [2] it was 1.85 µM; in [4], 2.01 µM; in assay [10], 1.53 µM; in assay [8] it was 1.92 µM; in assay [9] it was 1.89 µM. Further, the TGI amounted to 3.42 µM in assay [1]; 3.48 µM in assay [2]; 4.85 µM in assay [4]; 2.91 µM in assay [10]; 3.78 µM in assay [8]; 3.63 µM in assay [9].
With `Cc1ccc(S(=O)(=O)ON=C2CC(c3ccccc3)N(C)C(c3ccccc3)C2)cc1` (stereo not drawn), the TGI is 53.6 µM and 45.9 µM in assay [5]; 33.3 µM and 40.3 µM in [6]; 53.5 µM and 56.2 µM in assay [7].
For `CCOC(=O)c1cc2cc([N+](=O)[O-])ccc2oc1=O`, the TGI in [1], in assay [2], in assay [4], in assay [10], in assay [8] and in assay [9] was > 100 µM in each case.
